Results reported in patent publication US20110313233A1, “DOWN-REGULATION OF COLD SHOCK PROTEINS FOR CANCER TREATMENT” (THE JOHNS HOPKINS UNIVERSITY, priority 2010, published 2011).

System: LNCaP cells
Assay: Western blotting of Cyclin B1, Cyclin D1, γ-H2A.X, phosph-p53, p21
Format: cell-based
Conditions: scrambled siRNA controls
Description: Western blotting: Twenty-five micrograms of protein were separated on 10% to 20% SDS-PAGE and transferred onto PVD filters (Millipore, Bedford, Mass.). Membranes were incubated with primary antibodies overnight at 4° C. followed by horseradish peroxidase-conjugated secondary antibodies, and developed with the Super Signal West Dura Extended Duration Substrate kit (Pierce). RBM3 antibody was generated in a rabbit against as peptide (Sigma-Gneosys, The Woodlands, Tex.). HSPA1A and CIRBP antibodies were obtained from Lifespan Biosciences (ProteinTech Group, Chicago, Ill.), phospho-Histone H2A.X antibody was obtained from Millipore. Other antibodies were purchased from Cell Signaling (Danvers, Mass.) and Santa Cruz (Santa Cruz, Calif.)
Prostate cancer cells PC-3 (FIG. 12A) and LNCaP (FIG. 12B) were transfected with 100 nM RBM3 or CIRBP SMARTpool siRNA. Forty-eight hours after transfection, cells were treated with 4 μg/ml cDDP or 1 μg/ml ADM for 4 h, and then moved back to normal medium for another 16 h. Cell lysates were subjected to Western blotting to detect Cyclin B1, Cyclin D1, phosph-histone H2A.X (Ser139) (γ-H2A.X), phosph-p53 (Ser15), and p21. Actin was used as a control for protein loading.

| Compound | activation of p53 by drug treatment |
| --- | --- |
| COc1cccc2c1C(=O)c1c(O)c3c(c(O)c1C2=O)C[C@@](O)(C(=O)CO)C[C@@H]3O[C@H]1C[C@H](N)[C@H](O)[C@H](C)O1 [ADM, adriamycin] | activated |
| [NH2][Pt]([NH2])([Cl])[Cl] [cDDP, cisplatin] | activated |
